Experimental data reported in US4386077A (Made Italiana s.r.l, priority 1981, dated 1983).

Assays:
[1] = assay type: in vivo, rat; conditions: rats, oral (gastric gavage), 50 mg CDP-choline, 24 hours
Protocol: The labelled carbon atom is that of the methyl group of the choline moiety.
At different time intervals a certain amount of blood is collected and, after 24 hours from the beginning of the experiment, the animals are sacrificed. The amount of radioactivity is measured in predetermined serum volumes or weight of the various organs or tissues.
The values are expressed as c.p.m.x 10^-3 /gram of organ or tissue.

[2] = oral, compound as such; cited from earlier work
[3] = Serum kinetics and absolute bioavailability of ^14 C-labelled CDP-choline and "ASONIC" after i.v. and oral administration in Cynomolgus monkeys; assay type: in vivo, Cynomolgus monkey; conditions: for Plasmatic concentration: average and S.D. of 2 monkeys
Protocol: From the end of the curves serum concentration/time, it was possible to calculate the constant of the apparent elimination speed from the organism as well as the relative half-life. These values were utilized in calculating the AUC T30 hours →T.infin. for the total of the curves concentration/time in the same animal. The AUC To →T30 hrs was calculated by means of the trapezium methods. […] For each dosage, a randomized cross-over procedure was used. Seriated blood samples were collected until 30 hours after each administration. From the single curves concentration/time it was possible to calculate the AUC To →T30 hrs. After each administration, including the intravenous one, urine was collected at the following time intervals: 0-24 hours, 24-48 hours and 48-72 hours.

**Q.** Which results are given for `C[N+](C)(C)CCOP(=O)(O)OP(=O)([O-])OC[C@H]1O[C@@H](n2ccc(N)nc2=O)[C@H](O)[C@@H]1O` [CDP-choline, cytidine diphosphocholine]?
**A.** Radioactivity value in brain [1]: 1.55 c.p.m.x 10^-3 /gram of organ o; Radioactivity value in kidney [1]: 46.3 c.p.m.x 10^-3 /gram of organ o; Radioactivity value in liver [1]: 65.4 c.p.m.x 10^-3 /gram of organ o; Radioactivity value in muscle [1]: 3.1 c.p.m.x 10^-3 /gram of organ o; Absorbability [2]: poor absorbability; Plasmatic concentration ([3]; 25 mg/kg i.v., 5'): 10561 ± 2620 DPM/ml serum; Plasmatic concentration ([3]; 25 mg/kg i.v., 15'): 4088 ± 1299 DPM/ml serum; Plasmatic concentration ([3]; 25 mg/kg i.v., 30'): 2846 ± 877 DPM/ml serum; Plasmatic concentration ([3]; 25 mg/kg i.v., 60'): 2127 ± 704 DPM/ml serum; Plasmatic concentration ([3]; 25 mg/kg i.v., 2 hr): 2397 ± 329 DPM/ml serum; Plasmatic concentration ([3]; 25 mg/kg i.v., 4 hr): 3064 ± 431 DPM/ml serum; Plasmatic concentration ([3]; 25 mg/kg i.v., 7 hr): 3566 ± 631 DPM/ml serum; Plasmatic concentration ([3]; 25 mg/kg i.v., 24 hr): 2035 ± 315 DPM/ml serum; Plasmatic concentration ([3]; 25 mg/kg i.v., 30 hr): 1947 ± 280 DPM/ml serum; Plasmatic concentration ([3]; 200 mg/kg per os, 15'): 61 DPM/ml serum; Plasmatic concentration ([3]; 200 mg/kg per os, 30'): 45 DPM/ml serum; Plasmatic concentration ([3]; 200 mg/kg per os, 45'): 56 ± 4 DPM/ml serum; Plasmatic concentration ([3]; 200 mg/kg per os, 60'): 91 ± 4.2 DPM/ml serum; Plasmatic concentration ([3]; 200 mg/kg per os, 4 hr): 154 ± 26 DPM/ml serum; Plasmatic concentration ([3]; 200 mg/kg per os, 7 hr): 774 ± 110 DPM/ml serum; Plasmatic concentration ([3]; 200 mg/kg per os, 9 hr): 669 ± 105 DPM/ml serum; Plasmatic concentration ([3]; 200 mg/kg per os, 24 hr): 378 ± 55 DPM/ml serum; Plasmatic concentration ([3]; 200 mg/kg per os, 30 hr): 344 ± 58 DPM/ml serum; Plasmatic concentration ([3]; 400 mg/kg per os, 30'): 35 DPM/ml serum; Plasmatic concentration ([3]; 400 mg/kg per os, 60'): 61 ± 12 DPM/ml serum; Plasmatic concentration ([3]; 400 mg/kg per os, 90'): 40 ± 16 DPM/ml serum; Plasmatic concentration ([3]; 400 mg/kg per os, 2 hr): 78 ± 4.2 DPM/ml serum; Plasmatic concentration ([3]; 400 mg/kg per os, 3 hr): 181 ± 9.2 DPM/ml serum; Plasmatic concentration ([3]; 400 mg/kg per os, 4 hr): 448 ± 66 DPM/ml serum; Plasmatic concentration ([3]; 400 mg/kg per os, 6 hr): 1496 ± 134 DPM/ml serum; Plasmatic concentration ([3]; 400 mg/kg per os, 7 hr): 2636 ± 107 DPM/ml serum; Plasmatic concentration ([3]; 400 mg/kg per os, 8 hr): 4163 ± 101 DPM/ml serum; Plasmatic concentration ([3]; 400 mg/kg per os, 9 hr): 4813 ± 513 DPM/ml serum; Plasmatic concentration ([3]; 400 mg/kg per os, 24 hr): 536 ± 122 DPM/ml serum; Plasmatic concentration ([3]; 400 mg/kg per os, 30 hr): 470 ± 98 DPM/ml serum; Serum concentration ([3]; monkey no. 1, 25 mg/kg i.v., 5'): 8708 DPM/ml; Serum concentration ([3]; monkey no. 1, 25 mg/kg i.v., 15'): 3169 DPM/ml; Serum concentration ([3]; monkey no. 1, 25 mg/kg i.v., 30'): 2226 DPM/ml; Serum concentration ([3]; monkey no. 1, 25 mg/kg i.v., 60'): 1629 DPM/ml; Serum concentration ([3]; monkey no. 1, 25 mg/kg i.v., 2 hr): 2165 DPM/ml; Serum concentration ([3]; monkey no. 1, 25 mg/kg i.v., 4 hr): 2760 DPM/ml; Serum concentration ([3]; monkey no. 1, 25 mg/kg i.v., 7 hr): 3120 DPM/ml; Serum concentration ([3]; monkey no. 1, 25 mg/kg i.v., 24 hr): 1812 DPM/ml; Serum concentration ([3]; monkey no. 1, 25 mg/kg i.v., 30 hr): 1749 DPM/ml; Serum concentration ([3]; monkey no. 1, 200 mg/kg per os, 30'): 45 DPM/ml; Serum concentration ([3]; monkey no. 1, 200 mg/kg per os, 45'): 53 DPM/ml; Serum concentration ([3]; monkey no. 1, 200 mg/kg per os, 60'): 88 DPM/ml; Serum concentration ([3]; monkey no. 1, 200 mg/kg per os, 7 hr): 852 DPM/ml; Serum concentration ([3]; monkey no. 1, 200 mg/kg per os, 9 hr): 743 DPM/ml; Serum concentration ([3]; monkey no. 1, 200 mg/kg per os, 24 hr): 339 DPM/ml; Serum concentration ([3]; monkey no. 1, 400 mg/kg per os, 30'): 35 DPM/ml; Serum concentration ([3]; monkey no. 1, 400 mg/kg per os, 60'): 52 DPM/ml; Serum concentration ([3]; monkey no. 1, 400 mg/kg per os, 90'): 29 DPM/ml; Serum concentration ([3]; monkey no. 1, 400 mg/kg per os, 2 hr): 75 DPM/ml; Serum concentration ([3]; monkey no. 1, 400 mg/kg per os, 3 hr): 187 DPM/ml; Serum concentration ([3]; monkey no. 1, 400 mg/kg per os, 4 hr): 401 DPM/ml; Serum concentration ([3]; monkey no. 1, 400 mg/kg per os, 6 hr): 1590 DPM/ml; Serum concentration ([3]; monkey no. 1, 400 mg/kg per os, 7 hr): 2712 DPM/ml; Serum concentration ([3]; monkey no. 1, 400 mg/kg per os, 8 hr): 4092 DPM/ml; Serum concentration ([3]; monkey no. 1, 400 mg/kg per os, 9 hr): 5175 DPM/ml; Serum concentration ([3]; monkey no. 1, 400 mg/kg per os, 24 hr): 622 DPM/ml; Serum concentration ([3]; monkey no. 1, 400 mg/kg per os, 30 hr): 540 DPM/ml; Serum concentration ([3]; monkey no. 2, 25 mg/kg i.v., 5'): 12414 DPM/ml; Serum concentration ([3]; monkey no. 2, 25 mg/kg i.v., 15'): 5007 DPM/ml
